Measurements taken from patent US20060002946A1, “Targeted immunogens” (Aventis Pasteur, Inc., priority 2003, published 2006).

Experiments:
[1] = tested on: HLA-A2/Kb transgenic mice; assay: s.c. peptide immunization, gp100-154 CTL chromium release (FIG. 5); details: 50 ug s.c., boosts days 21 and 42, day 63
Procedure: CTL responses in HLA-A2/Kb transgenic mice following subcutaneous (s.c.) injection of peptide. Mice were immunized s.c. with 50 ug of the indicated peptides and boosted on days 21 and 42 following the first injection. Splenocytes from immunized animals were harvested on day 63 post immunization, re-stimulated with the native gp100-154 peptide for 5 days, and tested for CTL activity in a standard chromium release assay using target cells pulsed with gp100-154 peptide.
Furthermore, CTL responses were assessed in HLA-A2/K^b transgenic mice (Sherman strain) following s.c. immunization with gp100-154 peptide alone, conjugated to hPER1 or AntpHD with or without linker FVYVW. Mice were boosted on days 21 and 42 and splenocytes from vaccinated animals were harvested on day 63 and tested for CTL activity after 5 days of restimulation in vitro.

[2] = tested on: HLA-A2/K^b transgenic mice; details: 100 μg s.c. plus T-helper peptide, no adjuvant, boosts days 14 and 28
Source text: Mice were similarly boosted on days 14 and 28. On day 42, splenocytes (2 mice per group) were individually restimulated in vitro for 6 days with the appropriate wild type peptide, and then tested for either IFN-γ secretion by ELISPOT (FIG. 3A) or CTL assay (FIG. 3B) using peptide-pulsed C1R-A2 cells. On day 57, the remaining mice in each group were similarly tested. Average responses from each group are shown.

[3] = tested on: HLA-A2/K^b transgenic mice; assay: s.c. immunization without adjuvant, CTL assay (FIG. 3B); assay type: in vivo, mouse; details: 100 μg s.c. plus T-helper peptide, no adjuvant, boosts days 14 and 28
Source text: Mice were similarly boosted on days 14 and 28. […] Average responses from each group are shown.

With “GRRHHRRSKAKRSRKTWGQYWQV [hPER1, no linker, gp100-154]” the “CTL responses against gp100-154” value [1] was “a weak response was observed”, the “154-specific IFN-γ responses (ELISPOT)” value [2] was “can be induced” and the “peptide-specific CTL responses” value [3] was “can be induced”.
